Reference: patent publication US10806721B2, “Formulation for use in the treatment of uremic pruritus” (DRUG DELIVERY SOLUTIONS, priority 2016, dated 2020)
Blank lines part the entries; values can stand above or below the molecule they belong to.

Legend:
[1] = test system: reconstructed human epidermis (RHE); assay: ELISA of carbamoylated proteins in reconstructed human epidermis exposed to urea from the stratum corneum side (Example 3); type: cell-based; settings: for ELISA reading, carbamoylated proteins, Day 3: harvested day 3; for ELISA reading, carbamoylated proteins, Day 6: harvested day 6; for carbamylation of proteins (result in words): exposure on top of RHE skin samples, within 6 days
Method: (§1) To further investigate possible carbamylation in human skin in UP (Uremic Pruritus) the inventors conducted a series of studies in the reconstructed human epidermis (RHE) model. The 4 cm^2 large skin samples were delivered from Episkin® in 6 well plates each with a volume of 1 ml. The experiments were carried out in 18-25 days old skin samples. RHE is a standardized technology used to investigate metabolic, toxic and inflammatory reactions in the skin (13). The skin samples were developed from human epidermal stem cells. They were developed on a […] net with an underlying growth medium. The RHE contains all the different cell layers in the epidermis, including stratum corneum. The samples are kept at 37° C. in a 5% CO2 atmosphere. They are handled under sterile conditions. New growth medium is added daily. The 4 cm^2 large skin samples were ready for use after 18 days' development; a time span similar to the normal turnover of human skin.
(§2) 12 individual experiments were carried out including 2 controls. Growth media (1 ml) were replaced daily according to the standard protocol. 6 of the samples were harvested at day 3 and 6 at day 6 and immediately frozen at minus 80° C. until protein analysis. Parts of all samples were sent for histologic examination.
(§3) The following exposures (individual experiments), all from stratum corneum side of the skin sample, were made.
1. Controls: Left untreated.
(§4) 2. Urea in an aqueous solution in the same amount—calculated as mg/cm^2 skin—, as in UP. This calculated amount corresponds to 0.3 mg/cm^2, based on calculation of the sum of the average serum levels of urea in uremic patients, urea from sweat, and contribution from active transport of urea into the cells in epidermis. The addition of urea is done by the addition of 200 μl of a solution of 6 mg urea/ml) to the surface of the skin samples.
(§5) 3. As under above item 2 but in double amount (0.6 mg/cm^2).
(§6) 4. As under above item 3 and added 200 μl of a 1% histidine solution.
(§7) 5. 5% commercially available urea cream dosed as intended human use
6. 10% commercially available urea cream dosed as intended human use
The skin samples harvested at day 3 were exposed day 0 to 2-6 and day 1 to 2-4. (tabl. 1)
The skin samples is harvested at day 6 were exposed as above and further day 3 to 2-6. In agreement with Table 1 the aqueous urea solution was absorbed immediately through the skin samples. The two creams left a deposit on top of the skin and were therefore only applied twice; day 0 and day 3 (for the 6-day experiment). Daily exposures were abstained to minimize the risk of infection. […] Further the urea concentrations from experiments 2, 3 and 4 harvested day 6 may have been relatively low due to only one supplementary exposure day 3.
(§8) Protein analysis was made according to a previous developed method (14). Carbamoylated proteins from the skin samples were coated to ELISA wells and quantified using a using a primary polyclonal anti-homocitrullin antibody and a secondary labelled polyclonal detection antibody.

[2] = test system: reconstructed human epidermis (RHE); assay: Histological examination of reconstructed human epidermis exposed to urea (Example 3); type: cell-based
Method: as §1, §2, §3, §4, §5, §6, §7
6. 10% commercially available urea cream dosed as intended human use […]

[3] = test system: Human Reconstructed Epidermis (RHE); assay: ELISA of carbamoylated proteins in RHE with urea in the growth medium (Example 4); type: cell-based
From the text: as §8
The same method as described in example 3 was used. The studies were based on the use of the Human Reconstructed Epidermis (RHE) model purchased from Episkin®. Three experiments were made in duplicate including 2 controls. Growth media (1 ml) with and without additions (see below) were replaced daily accordingly to the standard protocol. In contrast to Example 3 the urea exposure was made by addition of urea to the growth medium. Experiment 1 corresponds to the two controls; experiment 2 was with growth medium with 4 mg/ml urea; experiment 3 was with growth medium with 4 mg/ml urea and with addition of 5 mg […] cream with 2% amino acids applied on top of RHE skin surface at Day 0 and Day 3. All 6 skin samples looked macroscopically healthy when they were harvested after 6 days. There were no signs of infection or necrosis. They were immediately frozen at minus 80° C. until protein analysis. Parts of all samples were sent for histological examination.
Protein carbamoylated was investigated using the same method as in Experiment 3.

[4] = Degradation of histidine in the cream of Example 1 exposed to urea; type: physicochemical; settings: cream of Example 1 with 10 w/w % urea; six weeks at 40° C.
Method: The degradation process was followed over time and after six weeks at 40° C. only 20% histidine was left in the cream having 10 w/w % urea.

[5] = Urea conc. as in UP (high) 12 mg, 0.6 mg/cm^2 on skin surface
[6] = Urea conc. as in UP (moderate) 6 mg, 0.3 mg/cm^2 on skin surface
[7] = 0.5% histidine added to urea conc. as in UP (high) 12 mg

SMILES: NC(N)=O [Urea]
ELISA reading, carbamoylated proteins, Day 3 [1, 5]: 0.316 absorbance units
ELISA reading, carbamoylated proteins, Day 6 [1, 5]: 0.475 absorbance units
ELISA reading, carbamoylated proteins, Day 3 [1, 6]: 0.377 absorbance units
ELISA reading, carbamoylated proteins, Day 6 [1, 6]: 0.368 absorbance units
carbamylation of proteins (result in words) [1]: could be demonstrated
histological changes (edema and disruptions in stratum corneum, premature cell death in stratum spinosum) ([2]; harvested day 3): significant changes
histological changes ([2]; harvested day 6): recovered to a certain extent
Elisa reading, carbamoylated proteins, average of two experiments ([3]; GM + 4 mg urea/ml, harvested after 6 days): 0.68 absorbance units
level of protein carbamylation (result in words) ([3]; growth medium with 4 mg/ml urea, 6 days): highest level of carbamylation

histidine left in the cream [4]: 20%
SMILES: N[C@@H](Cc1c[nH]cn1)C(=O)O [histidine]
ELISA reading, carbamoylated proteins, Day 3 [1, 7]: 0.312 absorbance units
ELISA reading, carbamoylated proteins, Day 6 [1, 7]: 0.321 absorbance units
carbamylation of proteins (result in words) [1]: prevented this carbamylation
effect on urea-induced edema and cell death (histology) ([2]; histidine added to urea 0.6 mg/cm^2, harvested both day 3 and day 6): can counteract this effect
